Consider four molecules from patent US20060115865A1, “Lamotrigine analogs” (priority 2004, published 2006).

Series [1] can be described thus: Solubility of 74W86 in common solvents. It counts as physicochemical. The conditions noted are these: most common solvents.
The subject of series [2] is anti-lamotrigine antibody. As to the kind of experiment: Cross-reactivity of polyclonal antibody with lamotrigine metabolites spiked into human serum. Type of series: binding. The conditions noted are these: metabolite at 500 μg/mL spiked into human serum; polyclonal antisera. The procedure: A polyclonal antisera is obtained and an assay is performed in order to determine the amount of cross-reactivity of the polyclonal antibody with lamotrigine and lamotrigine metabolites. A known amount of lamotrigine is used to react with an anti-lamotrigine antibody prepared in accordance with the present invention. The known concentration of lamotrigine is used to calculate the amount of cross-reactivity between the antibody preparation and the metabolites as follows: N-methyl (29); N-oxide (30); and N-2 gluronide (31). The percent of cross-reactivity equals 100 times the observed concentration of lamotrigine in μg/mL, which is then divided by the concentration of added metabolites in μg/mL. No cross-reactivity is observed in specimens containing those metabolites. High concentrations of these compounds are spiked into human serum and tested as samples. The metabolites are assayed and compared to control serum (no lamotrigine). Cross reactivity is calculated using the following equation: [formula]

The conditions of series [3]: cited from earlier work.
Where [4] appears, read: responders (>50% seizure reduction).

Where two headings read alike, the source gives them in different places. A value given as a limit tells only on which side of the number the result lay.

In the case of `Nc1nnc(-c2cccc(Cl)c2Cl)c(NC(=O)CCC(=O)O)n1` [74W86], the solubility result in series [1] is recorded as “poor solubility in most common solvents”.

With `C[n+]1nc(-c2cccc(Cl)c2Cl)c(N)nc1N` [N-2 methyl], the cross-reactivity entry in series [2] is reported as “do not have any cross-reactivity”.

As to `Nc1nc(N)[n+]([O-])nc1-c1cccc(Cl)c1Cl` [N-2 oxide], the cross-reactivity in series [2] was less than 3%.

On to `Nc1nnc(-c2cccc(Cl)c2Cl)c(N)n1` [lamotrigine, 3,5-diamino-6-(2,3-dichlorophenyl)-1,2,4-triazine], for which, in series [3] (patients with side effects), the “lamotrigine concentration, range” value was 31 to 60 µmol/L and the median lamotrigine concentration was 62 µmol/L. Moreover, in series [3] (setting [4]), the “lamotrigine concentration, range” value is 8 to 60 µmol/L and the median lamotrigine concentration is 31 µmol/L.
